EC50 and EC90 data for eight compounds are collected here from ChEMBL document CHEMBL5661943, “ASAP - In vitro antiviral effect” (2024).

pEC50: −log10 of the molar value. Values joined by “and” are separate entries in the source; they are usually repeats but may differ in a detail not shown here. Equal entries are not always repeated.

The subject of assay [1] is dengue virus type 2. Kind of assay: Functional immunofluorescence assay to measure dose dependent changes in antiviral-drug inhibitory efficacy against Dengue virus type 2 Thailand/16681/84 in Vero E6/TMPRSS2 cells (cotreated with P-gp inhibitor, Elacridar). Cells are treated with antiviral candidates that are serially diluted, following infection, cells are fixed. EC50 is reported via analysis of immunofluorescence staining. The assay has been performed by Icahn School of Medicine at Mount Sinai. It counts as organism-based, Chlorocebus sabaeus, VeroE6/TMPRSS2. Conditions: Dengue virus; for EC90: P-gp concentration 2 uM, P-gp inhibitor Elacidar.

Assay [2] concerns Zika virus. Kind of assay: EC50 is reported via analysis of immunofluorescence staining. The assay has been performed by Icahn School of Medicine at Mount Sinai. Format: functional, organism-based, Chlorocebus sabaeus, VeroE6/TMPRSS2.
Assay [3] relates to dengue virus type 2. Kind of assay: Functional assay to measure dose dependent changes in antiviral-drug inhibitory efficacy against Dengue virus type 2 New Guinea C in Vero E6 miRFP670 cells (cotreated with P-gp inhibitor, CP100356). Cells are treated with antiviral candidates that are serially diluted, following infection, cells are fixed. EC50 is reported via analysis of fluorescence intensity using high-content imager. The …. It counts as organism-based, Chlorocebus sabaeus, Vero C1008. The note with it: for EC90: P-gp concentration 500 nM, P-gp inhibitor CP100356.

For assay [4], the system named is Zika virus. Description: Functional CPE-based assay to measure dose dependent changes in antiviral-drug inhibitory efficacy against Zika virus MR766 in Vero E6 miRFP670 cells (cotreated with P-gp inhibitor, CP100356). Cells are treated with antiviral candidates that are serially diluted. EC50 is reported via analysis of MTS assay as a readout of CPE. The assay has been performed by KU Leuven. Format: organism-based, Chlorocebus sabaeus, Vero C1008. Conditions: for EC90: P-gp concentration 500 nM, P-gp inhibitor CP100356. (In general: Tetrazolium assays rely on reduction of a dye to a coloured formazan, in cell work by metabolically active cells.)

Usually pEC50 stands for the negative decadic logarithm of the EC50, by convention in mol/L. What is called EC90 is the concentration at which the effect reaches the 90% level. Regarding `CC(=O)Nc1cc(Br)cc(C(=O)Nc2ccc3c(c2)CNC3)c1`, the pEC50 is less than 4.30 in assay [1] (VeroE6/TMPRSS2); less than 4.30 in assay [2] (Zika virus, VeroE6/TMPRSS2); less than 4.30 in assay [3] (Dengue virus, Vero C1008); less than 4.30 in assay [4] (Zika virus, Vero C1008). The EC90 in assay [1] (VeroE6/TMPRSS2, Maximum measured 175.614 %, Minimum measured 132.324 %) is more than 50 µM; in assay [2] (Baseline response 0 %, Hill slope -0.518, Maximum measured 97.567 %, Maximum response 50 %, Minimum measured 37.703 %, P-gp concentration 2 uM, R squared 0.045, P-gp inhibitor Elacidar) it was more than 50 µM; in assay [2] (Zika virus, VeroE6/TMPRSS2, Baseline response 0 %, Hill slope -0.196, Maximum measured 132.114 %, Maximum response 100 %, Minimum measured 61.615 %, P-gp concentration 2 uM, R squared 0.024, P-gp inhibitor Elacidar), more than 50 µM; in assay [3] (Dengue virus, Vero C1008, Baseline response 0 %, Hill slope 0.424, Maximum measured 105.264 %, Maximum response 100 %, Minimum measured 74.207 %, R squared 0.146), more than 50 µM; in assay [4] (Zika virus, Vero C1008, Baseline response 0 %, Hill slope -0.049, Maximum measured 5.994 %, Maximum response 100 %, Minimum measured 2.41 %, R squared 0.015), more than 50 µM.
Consider `O=C(Nc1cc(Cl)cc(C(=O)Nc2ccc(-n3nn[nH]c3=O)cc2)c1)OCc1ccccc1`, for which the negative logarithm of the EC50 (pEC50) was 4.94 in assay [1] (VeroE6/TMPRSS2); 4.31 in assay [2] (Zika virus, VeroE6/TMPRSS2); 5.14 and 4.31 in assay [3] (vero c1008); less than 4.30 in assay [4] (Zika virus, Vero C1008). The EC90 was more than 16.7 µM in assay [1] (VeroE6/TMPRSS2, Baseline response 0 %, Hill slope -0.45, Maximum measured 123.141 %, Maximum response 100 %, Minimum measured 41.064 %, R squared 0.456); more than 50 µM in assay [2] (Zika virus, VeroE6/TMPRSS2, Baseline response 0 %, Hill slope -16.502, Maximum measured 156.276 %, Maximum response 100 %, Minimum measured 42.402 %, P-gp concentration 2 uM, R squared 0.326, P-gp inhibitor Elacidar); 9.32 µM in assay [3] (Baseline response 0 %, EC90 CI (lower) 3.172 uM, EC90 CI (upper) 10.269 uM, Hill slope -8.96, Maximum measured 107.351 %, Maximum response 100 %, Minimum measured 0.837 %, R squared 0.832); more than 50 µM in assay [3] (Baseline response 0 %, Hill slope -35.644, Maximum measured 130.696 %, Maximum response 100 %, Minimum measured 29.339 %, R squared 0.657); more than 50 µM in assay [4] (Zika virus, Vero C1008, Baseline response 0 %, Hill slope 1.628, Maximum measured 15.335 %, Maximum response 100 %, Minimum measured -0.05 %, R squared 0.878).
Consider `Cc1c(C(=O)Nc2cc(-c3cccnc3)ccn2)cc(C2CC2)n1C`, for which the negative logarithm of the EC50 (pEC50) in assay [1] (VeroE6/TMPRSS2) was 4.34; in assay [2] (Zika virus, VeroE6/TMPRSS2), 4.84; in assay [3] (vero c1008), 6.08 and < 5.20; in assay [4] (Zika virus, Vero C1008) it was less than 4.30. Also, the 90% effect concentration (EC90) in assay [1] (VeroE6/TMPRSS2, Baseline response 0 %, Hill slope -10.528, Maximum measured 161.281 %, Maximum response 100 %, Minimum measured 29.52 %, R squared 0.091) is more than 50 µM; in assay [2] (Zika virus, VeroE6/TMPRSS2), 32.7 µM; in assay [3] (Baseline response 0 %, Hill slope 0.498, Maximum measured 89.901 %, Maximum response 100 %, Minimum measured 65.385 %, R squared 0.493), more than 6.25 µM; in assay [3] (Baseline response 0 %, Hill slope 0.771, Maximum measured 124.592 %, Maximum response 100 %, Minimum measured 47.777 %, R squared 0.6), less than 0.391 µM; in assay [4] (Baseline response 0 %, Hill slope 10.672, Maximum measured 18.054 %, Maximum response 100 %, Minimum measured -2.868 %, R squared 0.771) it was more than 50 µM; in assay [4] (Zika virus, Vero C1008, Baseline response 0 %, Hill slope 1.591, Maximum measured 7.654 %, Maximum response 100 %, Minimum measured -2.289 %, R squared 0.158) it was more than 50 µM.
On to `O=C(NC[C@H]1CCCO1)[C@H](Nc1ccc2c(c1)CNC2)c1cc(Cl)cc(C2CC2)c1`, for which the pEC50 in assay [1] (VeroE6/TMPRSS2) is less than 4.30; in assay [2] (Zika virus, VeroE6/TMPRSS2), less than 5.26; in assay [3] (Dengue virus, Vero C1008), less than 4.30; in assay [4] (Zika virus, Vero C1008), less than 4.60. Moreover, the 90% effect concentration (EC90) in assay [1] (VeroE6/TMPRSS2, Maximum measured 244.293 %, Minimum measured 137.827 %) was more than 50 µM; in assay [2] (Zika virus, VeroE6/TMPRSS2, Maximum measured 140.093 %, Minimum measured 93.076 %, P-gp concentration 2 uM, P-gp inhibitor Elacidar), more than 5.56 µM; in assay [2] (Zika virus, VeroE6/TMPRSS2, Baseline response 0 %, Hill slope 0.091, Maximum measured 92.664 %, Maximum response 100 %, Minimum measured 73.777 %, P-gp concentration 2 uM, R squared 0.029, P-gp inhibitor Elacidar), more than 5.56 µM; in assay [3] (Dengue virus, Vero C1008, Baseline response 0 %, Hill slope -0.736, Maximum measured 108.993 %, Maximum response 100 %, Minimum measured 54.851 %, R squared 0.259) it was more than 50 µM; in assay [4] (Zika virus, Vero C1008, Baseline response 0 %, Hill slope 2.187, Maximum measured 41.665 %, Maximum response 100 %, Minimum measured -0.442 %, R squared 0.938), more than 25 µM.
For `CCc1cc(C(=O)Nc2cccc(-c3nnn[nH]3)c2)sc1-c1ccc(Cl)cc1`, the pEC50 in assay [1] (VeroE6/TMPRSS2) was less than 4.78; in assay [2] (Zika virus, VeroE6/TMPRSS2), less than 4.78; in assay [3] (Dengue virus, Vero C1008), less than 4.60; in assay [4] (Zika virus, Vero C1008), less than 4.30. Besides, the concentration for an effect of 90% (EC90) in assay [1] (VeroE6/TMPRSS2, Baseline response 0 %, Hill slope -0.101, Maximum measured 96.419 %, Maximum response 100 %, Minimum measured 50.045 %, R squared 0.073) was more than 16.7 µM; in assay [2] (Zika virus, VeroE6/TMPRSS2, Maximum measured 109.494 %, Minimum measured 75.609 %, P-gp concentration 2 uM, P-gp inhibitor Elacidar), more than 16.7 µM; in assay [3] (Dengue virus, Vero C1008, Baseline response 0 %, Hill slope 0.831, Maximum measured 164.159 %, Maximum response 100 %, Minimum measured 71.563 %, R squared 0.225), more than 25 µM; in assay [4] (Zika virus, Vero C1008, Baseline response 0 %, Hill slope -0.614, Maximum measured 5.848 %, Maximum response 100 %, Minimum measured -4.216 %, R squared 0.418), more than 50 µM.
In the case of `Cc1c(C(=O)Nc2cc([C@H]3CCOC3)ccn2)cc(C2CC2)n1C`, the pEC50 in assay [1] (VeroE6/TMPRSS2) is less than 4.30; in assay [2] (Zika virus, VeroE6/TMPRSS2) it was 6.80; in assay [3] (Dengue virus, Vero C1008), less than 4.30; in assay [4] (Zika virus, Vero C1008), less than 4.30. The concentration for an effect of 90% (EC90) in assay [1] (VeroE6/TMPRSS2, Maximum measured 144.829 %, Minimum measured 95.742 %) was more than 50 µM; in assay [2] (Zika virus, VeroE6/TMPRSS2), 49.5 µM; in assay [3] (Baseline response 0 %, Hill slope 0.336, Maximum measured 108.09 %, Maximum response 100 %, Minimum measured 73.455 %, R squared 0.31) it was more than 50 µM; in assay [3] (Dengue virus, Vero C1008, Baseline response 0 %, Hill slope -3.691, Maximum measured 104.755 %, Maximum response 100 %, Minimum measured 84.933 %, R squared 0.225) it was more than 50 µM; in assay [4] (Zika virus, Vero C1008, Maximum measured 3.949 %, Minimum measured -5.577 %), more than 50 µM; in assay [4] (Zika virus, Vero C1008, Maximum measured -8.54 %, Minimum measured -21.261 %), more than 50 µM.
On to `Cn1cc(CCc2nc3c(C(=O)Nc4ccc5c(c4)CNC5)cc(Cl)cc3[nH]2)cn1`, for which the pEC50 is less than 4.78 in assay [1] (VeroE6/TMPRSS2); less than 4.78 in assay [2] (Zika virus, VeroE6/TMPRSS2); less than 4.30 in assay [3] (Dengue virus, Vero C1008); less than 4.30 in assay [4] (Zika virus, Vero C1008). The EC90 in assay [1] (VeroE6/TMPRSS2, Baseline response 0 %, Hill slope -0.053, Maximum measured 79.122 %, Maximum response 100 %, Minimum measured 42.376 %, R squared 0.043) was more than 16.7 µM; in assay [2] (Zika virus, VeroE6/TMPRSS2, Maximum measured 69.995 %, Minimum measured 22.891 %, P-gp concentration 2 uM, P-gp inhibitor Elacidar) it was more than 16.7 µM; in assay [3] (Dengue virus, Vero C1008, Maximum measured 132.966 %, Minimum measured 89.816 %), more than 50 µM; in assay [4] (Zika virus, Vero C1008, Baseline response 0 %, Hill slope 0.081, Maximum measured 22.254 %, Maximum response 100 %, Minimum measured 2.34 %, R squared 0.041) it was more than 50 µM.
Take `Cn1cc(CNC(=O)[C@H](Nc2ccc3c(c2)CNC3)c2cc(Cl)cc(C3CC3)c2)cn1`: the pEC50 in assay [1] (VeroE6/TMPRSS2) is less than 4.30; in assay [2] (veroe6/tmprss2) it was less than 4.30; in assay [3] (Dengue virus, Vero C1008), less than 4.30; in assay [4] (Zika virus, Vero C1008), less than 4.30. Moreover, the concentration for an effect of 90% (EC90) in assay [1] (VeroE6/TMPRSS2, Maximum measured 219.34 %, Minimum measured 69.596 %) was more than 50 µM; in assay [2] (Zika virus, VeroE6/TMPRSS2, Maximum measured 136.439 %, Minimum measured 82.812 %, P-gp concentration 2 uM, P-gp inhibitor Elacidar), more than 5.56 µM; in assay [2] (Zika virus, VeroE6/TMPRSS2, Maximum measured 172.39 %, Minimum measured 65.114 %, P-gp concentration 2 uM, P-gp inhibitor Elacidar), more than 50 µM; in assay [3] (Dengue virus, Vero C1008, Maximum measured 110.921 %, Minimum measured 103.415 %), more than 50 µM; in assay [4] (Zika virus, Vero C1008, Maximum measured -1.973 %, Minimum measured -8.89 %), more than 50 µM.
